{"source": "ChEMBL document CHEMBL1153753", "about": "“Structure-activity relationships and mechanism of action of antitumor bis 8-hydroxyquinoline substituted benzylamines” (Eur J Med Chem, 2010)", "key": {"[1]": {"assay": "Disregulation of endoplasmic reticulum stress responsive gene expression in human U87 cells assessed as change in ATF4 mRNA level at 0.5 uM after 16 hrs by microarray analysis relative to untreated control", "assay_type": "functional, cell-based", "conditions": "U-87MG ATCC"}, "[2]": {"assay": "Disregulation of cell cycle related gene expression in human U87 cells assessed as change in cyclin E2 mRNA level at 0.5 uM after 16 hrs by microarray analysis relative to untreated control", "assay_type": "functional, cell-based", "conditions": "U-87MG ATCC"}, "[3]": {"assay": "Disregulation of cell development related gene expression in human U87 cells assessed as change in HOXA6 mRNA level at 0.5 uM after 16 hrs by microarray analysis relative to untreated control", "assay_type": "functional, cell-based", "conditions": "U-87MG ATCC"}, "[4]": {"assay": "Disregulation of cell cycle related gene expression in human U87 cells assessed as change in cyclin D mRNA level at 0.5 uM after 16 hrs by microarray analysis relative to untreated control", "assay_type": "functional, cell-based", "conditions": "U-87MG ATCC"}, "[5]": {"assay": "Disregulation of cell survival related gene expression in human U87 cells assessed as change in FGF18 mRNA level at 0.5 uM after 16 hrs by microarray analysis relative to untreated control", "assay_type": "functional, cell-based", "conditions": "U-87MG ATCC"}, "[6]": {"assay": "Disregulation of endoplasmic reticulum stress responsive gene expression in human U87 cells assessed as change in PUMA mRNA level at 0.5 uM after 16 hrs by microarray analysis relative to untreated control", "assay_type": "functional, cell-based", "conditions": "U-87MG ATCC"}, "[7]": {"assay": "Disregulation of cell cycle related gene expression in human U87 cells assessed as change in EDN1 mRNA level at 0.5 uM after 3 hrs by microarray analysis relative to untreated control", "assay_type": "functional, cell-based", "conditions": "U-87MG ATCC"}, "[8]": {"assay": "Disregulation of inflammation related gene expression in human U87 cells assessed as change in IL1F5 mRNA level at 0.5 uM after 16 hrs by microarray analysis relative to untreated control", "assay_type": "functional, cell-based", "conditions": "U-87MG ATCC"}, "[9]": {"assay": "Disregulation of DNA-damage and oxidative stress responsive gene expression in human U87 cells assessed as change in SESN2 mRNA level at 0.5 uM after 3 hrs by microarray analysis relative to untreated control", "assay_type": "functional, U-87MG ATCC"}, "[10]": {"assay": "Disregulation of endoplasmic reticulum stress responsive gene expression in human U87 cells assessed as change in ARN1 mRNA level at 0.5 uM after 16 hrs by microarray analysis relative to untreated control", "assay_type": "functional, cell-based", "conditions": "U-87MG ATCC"}, "[11]": {"assay": "Disregulation of apoptosis related gene expression in human U87 cells assessed as change in BIM mRNA level at 0.5 uM after 16 hrs by microarray analysis relative to untreated control", "assay_type": "functional, cell-based", "conditions": "U-87MG ATCC"}, "[12]": {"assay": "Disregulation of endoplasmic reticulum stress responsive gene expression in human U87 cells assessed as change in ATF3 mRNA level at 0.5 uM after 16 hrs by microarray analysis relative to untreated control", "assay_type": "functional, cell-based", "conditions": "U-87MG ATCC"}, "[13]": {"assay": "Disregulation of endoplasmic reticulum stress responsive gene expression in human U87 cells assessed as change in Chop mRNA level at 0.5 uM after 16 hrs by microarray analysis relative to untreated control", "assay_type": "functional, cell-based", "conditions": "U-87MG ATCC"}, "[14]": {"assay": "Disregulation of cell cycle related gene expression in human U87 cells assessed as change in CCPG1 mRNA level at 0.5 uM after 16 hrs by microarray analysis relative to untreated control", "assay_type": "functional, cell-based", "conditions": "U-87MG ATCC"}, "[15]": {"assay": "Disregulation of inflammation related gene expression in human U87 cells assessed as change in CXCL3 mRNA level at 0.5 uM after 16 hrs by microarray analysis relative to untreated control", "assay_type": "functional, cell-based", "conditions": "U-87MG ATCC"}, "[16]": {"assay": "Disregulation of apoptosis related gene expression in human U87 cells assessed as change in FAS mRNA level at 0.5 uM after 16 hrs by microarray analysis relative to untreated control", "assay_type": "functional, cell-based", "conditions": "U-87MG ATCC"}, "[17]": {"assay": "Disregulation of cell cycle related gene expression in human U87 cells assessed as change in CDC6 mRNA level at 0.5 uM after 16 hrs by microarray analysis relative to untreated control", "assay_type": "functional, cell-based", "conditions": "U-87MG ATCC"}, "[18]": {"assay": "Disregulation of apoptosis related gene expression in human U87 cells assessed as change in GDF15 mRNA level at 0.5 uM after 16 hrs by microarray analysis relative to untreated control", "assay_type": "functional, cell-based", "conditions": "U-87MG ATCC"}, "[19]": {"assay": "Disregulation of cell cycle related gene expression in human U87 cells assessed as change in SKP2 mRNA level at 0.5 uM after 16 hrs by microarray analysis relative to untreated control", "assay_type": "functional, cell-based", "conditions": "U-87MG ATCC"}, "[20]": {"assay": "Disregulation of inflammation related gene expression in human U87 cells assessed as change in IL8 mRNA level at 0.5 uM after 16 hrs by microarray analysis relative to untreated control", "assay_type": "functional, cell-based", "conditions": "U-87MG ATCC"}, "[21]": {"assay": "Disregulation of cell development related gene expression in human U87 cells assessed as change in ISL2 mRNA level at 0.5 uM after 16 hrs by microarray analysis relative to untreated control", "assay_type": "functional, cell-based", "conditions": "U-87MG ATCC"}, "[22]": {"assay": "Disregulation of cell development related gene expression in human U87 cells assessed as change in PRPX1 mRNA level at 0.5 uM after 16 hrs by microarray analysis relative to untreated control", "assay_type": "functional, cell-based", "conditions": "U-87MG ATCC"}, "[23]": {"assay": "Disregulation of inflammation related gene expression in human U87 cells assessed as change in EREG mRNA level at 0.5 uM after 3 hrs by microarray analysis relative to untreated control", "assay_type": "functional, cell-based", "conditions": "U-87MG ATCC"}, "U-87MG ATCC [24]": {"test_system": "U-87MG ATCC", "assay": "Antiproliferative activity against human U87 cells expressing GFP assessed as reduction in cell density at 20 uM by flash-cytometry", "assay_type": "functional, cell-based"}, "[25]": {"assay": "Disregulation of cell cycle related gene expression in human U87 cells assessed as change in cyclin F mRNA level at 0.5 uM after 16 hrs by microarray analysis relative to untreated control", "assay_type": "functional, cell-based", "conditions": "U-87MG ATCC"}, "[26]": {"assay": "Cytotoxicity against human KB3 cells after 72 hrs by MTS assay", "assay_type": "functional", "conditions": "KB3, 72 h"}, "[27]": {"assay": "Disregulation of cell survival related gene expression in human U87 cells assessed as change in FGF2 mRNA level at 0.5 uM after 16 hrs by microarray analysis relative to untreated control", "assay_type": "functional, cell-based", "conditions": "U-87MG ATCC"}, "[28]": {"assay": "Disregulation of inflammation related gene expression in human U87 cells assessed as change in IL1A mRNA level at 0.5 uM after 16 hrs by microarray analysis relative to untreated control", "assay_type": "functional, cell-based", "conditions": "U-87MG ATCC"}, "[29]": {"assay": "Disregulation of cell development related gene expression in human U87 cells assessed as change in HQXB9 mRNA level at 0.5 uM after 16 hrs by microarray analysis relative to untreated control", "assay_type": "functional, cell-based", "conditions": "U-87MG ATCC"}, "[30]": {"assay": "Disregulation of cell cycle related gene expression in human U87 cells assessed as change in CDC25A mRNA level at 0.5 uM after 16 hrs by microarray analysis relative to untreated control", "assay_type": "functional, cell-based", "conditions": "U-87MG ATCC"}, "[31]": {"assay": "Disregulation of apoptosis related gene expression in human U87 cells assessed as change in NOXA mRNA level at 0.5 uM after 3 hrs by microarray analysis relative to untreated control", "assay_type": "functional, cell-based", "conditions": "U-87MG ATCC"}, "[32]": {"assay": "Disregulation of cell cycle related gene expression in human U87 cells assessed as change in CDCA7 mRNA level at 0.5 uM after 16 hrs by microarray analysis relative to untreated control", "assay_type": "functional, cell-based", "conditions": "U-87MG ATCC"}, "[33]": {"assay": "Disregulation of apoptosis related gene expression in human U87 cells assessed as change in IGFBP3 mRNA level at 0.5 uM after 16 hrs by microarray analysis relative to untreated control", "assay_type": "functional, cell-based", "conditions": "U-87MG ATCC"}, "U-87MG ATCC [34]": {"test_system": "U-87MG ATCC", "assay": "Antiproliferative activity against human U87 cells expressing GFP assessed as apparent cell death at 20 uM after 3 days by flash-cytometry", "assay_type": "functional, cell-based"}, "[35]": {"assay": "Cytotoxicity against human U373 cells by MTT assay", "assay_type": "functional, cell-based, U-373MG ATCC", "conditions": "U373 MG"}, "[36]": {"assay": "Antiproliferative activity against human U87 cells expressing GFP after 3 days by flash-cytometry", "assay_type": "functional, U-87MG ATCC", "conditions": "U-87 MG, 72 h, read-out: ED50 (the source's name)"}}, "note": "Calls of active or inactive are those of the source. The calls are words filed in the database; no cut-off is given here."}
{"smiles": "Cc1ccc(CN(Cc2ccc(O)c3ncccc23)Cc2ccc(O)c3ncccc23)cc1", "values": [{"measurement": "fold change (FC)", "setting": "[1]", "result": 3}, {"measurement": "fold change (FC)", "setting": "[2]", "result": 3}, {"measurement": "fold change (FC)", "setting": "[3]", "result": 3}, {"measurement": "fold change (FC)", "setting": "[4]", "result": 3}, {"measurement": "fold change (FC)", "setting": "[5]", "result": 3}, {"measurement": "fold change (FC)", "setting": "[6]", "result": 3}, {"measurement": "fold change (FC)", "setting": "[7]", "result": "> 1.4"}, {"measurement": "fold change (FC)", "setting": "[8]", "result": 3}, {"measurement": "fold change (FC)", "setting": "[9]", "result": ">1.4"}, {"measurement": "fold change (FC)", "setting": "[10]", "result": 3}, {"measurement": "fold change (FC)", "setting": "[11]", "result": 3}, {"measurement": "Activity", "setting": "[12]", "result": "Active"}, {"measurement": "fold change (FC)", "setting": "[13]", "result": 3}, {"measurement": "fold change (FC)", "setting": "[14]", "result": 3}, {"measurement": "fold change (FC)", "setting": "[15]", "result": 3}, {"measurement": "fold change (FC)", "setting": "[16]", "result": 3}, {"measurement": "fold change (FC)", "setting": "[17]", "result": 3}, {"measurement": "fold change (FC)", "setting": "[18]", "result": 3}, {"measurement": "fold change (FC)", "setting": "[19]", "result": 3}, {"measurement": "fold change (FC)", "setting": "[20]", "result": 3}, {"measurement": "fold change (FC)", "setting": "[21]", "result": 3}, {"measurement": "fold change (FC)", "setting": "[22]", "result": 3}, {"measurement": "fold change (FC)", "setting": "[23]", "result": "> 1.4"}, {"measurement": "Activity", "setting": "U-87MG ATCC [24]", "result": "Active"}, {"measurement": "fold change (FC)", "setting": "[25]", "result": 3}, {"measurement": "CC50", "setting": "[26]", "result": 3, "unit": "nM"}, {"measurement": "fold change (FC)", "setting": "[27]", "result": 3}, {"measurement": "Activity", "setting": "[28]", "result": "Active"}, {"measurement": "fold change (FC)", "setting": "[29]", "result": 3}, {"measurement": "fold change (FC)", "setting": "[30]", "result": 3}, {"measurement": "fold change (FC)", "setting": "[31]", "result": "> 1.4"}, {"measurement": "fold change (FC)", "setting": "[32]", "result": 3}, {"measurement": "fold change (FC)", "setting": "[33]", "result": 3}, {"measurement": "Activity", "setting": "U-87MG ATCC [34]", "result": "inactive"}, {"measurement": "IC50", "setting": "[35]", "result": 53, "unit": "nM"}, {"measurement": "EC50", "setting": "[36]", "result": "< 200", "unit": "nM"}]}
